Entries after “also recorded” stand apart in the source; their conditions may differ. Read-outs that look alike come from different tables or passages of the source.
Assays:
Kv1.3 channel [1] = type: cell-based, human
Kv1.3 channel [2] = target: T1, Kv1.3 channel (Homo sapiens, UniProt P22001); experiment: Whole-cell patch clamp electrophysiology, HEK293 Kv1.3 stable cells; type: cell-based
T1 construct: expressed in transfected cells
Description: (§1) The variegated region of each variant was extracted based on the known flanking sequences. The ratio between number of unique toxins and count of all reads represented the diversity of a selected library. Highly enriched variants versus those that were not enriched were chosen and their affinity to Kv1.3 were assessed and ranked. In general, the enrichment factor of a variant is positively correlated with its affinity to Kv1.3 (FIG. 4). […] To test the critical property of specificity, patch clamp analysis of S1-2 was also carried out on HEK293 cells expressing other Kv1 family members including Kv1.1 through Kv1.7 and the hERG channel.
(§2) Electrophysiology recording: HEKA EPC 10 USB patch clamp amplifier (from HEKA Elektronik, Germany) was used for the whole cell recording. A cover slip with abundant single HEK293 Kv1.3 stable cells on the surface was removed and placed into a continuously perfused (approximately 1-2 ml/minute) recording chamber mounted on an inverted microscope. The Kv1.3 current was recorded from single cell using standard whole cell recording techniques. The cell was voltage clamped at a holding potential of −80 mV. Outward potassium currents were measured using the whole-cell configuration of the patch clamp technique at a test potential of 40 mV from a holding potential of −80 mV. Current records were acquired at 2-5 KHz and filtered at 1-2 KHz. […]

Kv1.1 = target: T2, Kv1.1 (Homo sapiens, UniProt Q09470); experiment: Patch clamp on HEK293 cells expressing Kv1.1; type: cell-based
T2 construct: expressed in transfected cells; host or cells: HEK293
T2 sequence (Q09470 whole entry): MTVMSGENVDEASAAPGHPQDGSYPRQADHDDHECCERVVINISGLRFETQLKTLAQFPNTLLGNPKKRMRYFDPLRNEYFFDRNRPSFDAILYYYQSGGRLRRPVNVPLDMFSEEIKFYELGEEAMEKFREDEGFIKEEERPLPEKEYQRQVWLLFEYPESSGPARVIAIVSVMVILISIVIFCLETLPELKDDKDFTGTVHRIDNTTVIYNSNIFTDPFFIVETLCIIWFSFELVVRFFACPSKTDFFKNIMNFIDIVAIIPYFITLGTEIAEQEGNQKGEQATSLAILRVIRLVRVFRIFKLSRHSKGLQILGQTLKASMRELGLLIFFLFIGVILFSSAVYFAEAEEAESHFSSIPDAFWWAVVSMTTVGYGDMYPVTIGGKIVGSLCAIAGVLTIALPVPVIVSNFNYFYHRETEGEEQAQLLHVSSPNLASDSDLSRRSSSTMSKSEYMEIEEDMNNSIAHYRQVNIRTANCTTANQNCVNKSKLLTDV
Description: as §1, §2

Kv1.6 = target: T3, Kv1.6 (Homo sapiens, UniProt P17658); experiment: Patch clamp on HEK293 cells expressing Kv1.6; type: cell-based
T3 construct: expressed in transfected cells; host or cells: HEK293
T3 sequence (P17658 whole entry): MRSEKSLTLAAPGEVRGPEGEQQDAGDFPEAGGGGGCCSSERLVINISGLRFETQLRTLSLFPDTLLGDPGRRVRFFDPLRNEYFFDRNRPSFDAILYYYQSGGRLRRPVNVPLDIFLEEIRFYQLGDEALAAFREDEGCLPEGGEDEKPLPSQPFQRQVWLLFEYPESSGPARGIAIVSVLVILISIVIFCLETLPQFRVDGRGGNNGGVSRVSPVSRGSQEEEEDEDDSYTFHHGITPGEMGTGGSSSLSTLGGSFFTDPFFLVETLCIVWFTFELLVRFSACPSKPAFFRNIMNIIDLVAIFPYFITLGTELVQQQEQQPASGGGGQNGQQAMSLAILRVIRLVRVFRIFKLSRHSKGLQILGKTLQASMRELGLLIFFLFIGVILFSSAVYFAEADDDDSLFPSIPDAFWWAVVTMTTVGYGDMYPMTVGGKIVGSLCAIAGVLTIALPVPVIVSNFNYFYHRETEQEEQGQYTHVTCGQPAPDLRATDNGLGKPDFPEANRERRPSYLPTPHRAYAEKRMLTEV
Description: as §1, §2

[3] = lentivirus encoding membrane tethered peptide

Sequence of Kv1.3 channel (P22001 53-575 limits assumed): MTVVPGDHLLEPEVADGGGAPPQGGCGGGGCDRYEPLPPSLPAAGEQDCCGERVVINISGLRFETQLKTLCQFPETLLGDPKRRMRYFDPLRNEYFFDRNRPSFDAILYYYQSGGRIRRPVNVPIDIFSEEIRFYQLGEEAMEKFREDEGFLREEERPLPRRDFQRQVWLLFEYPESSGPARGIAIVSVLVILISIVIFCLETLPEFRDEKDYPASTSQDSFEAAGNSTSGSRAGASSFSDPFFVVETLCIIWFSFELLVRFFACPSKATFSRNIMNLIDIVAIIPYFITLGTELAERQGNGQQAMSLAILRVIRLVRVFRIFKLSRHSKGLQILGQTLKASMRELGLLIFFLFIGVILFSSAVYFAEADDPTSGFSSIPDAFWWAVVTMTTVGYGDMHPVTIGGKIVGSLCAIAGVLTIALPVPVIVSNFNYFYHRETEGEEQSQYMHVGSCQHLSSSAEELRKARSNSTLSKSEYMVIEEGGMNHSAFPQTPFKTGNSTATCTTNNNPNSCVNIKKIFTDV
T1 sequence (P22001 whole entry): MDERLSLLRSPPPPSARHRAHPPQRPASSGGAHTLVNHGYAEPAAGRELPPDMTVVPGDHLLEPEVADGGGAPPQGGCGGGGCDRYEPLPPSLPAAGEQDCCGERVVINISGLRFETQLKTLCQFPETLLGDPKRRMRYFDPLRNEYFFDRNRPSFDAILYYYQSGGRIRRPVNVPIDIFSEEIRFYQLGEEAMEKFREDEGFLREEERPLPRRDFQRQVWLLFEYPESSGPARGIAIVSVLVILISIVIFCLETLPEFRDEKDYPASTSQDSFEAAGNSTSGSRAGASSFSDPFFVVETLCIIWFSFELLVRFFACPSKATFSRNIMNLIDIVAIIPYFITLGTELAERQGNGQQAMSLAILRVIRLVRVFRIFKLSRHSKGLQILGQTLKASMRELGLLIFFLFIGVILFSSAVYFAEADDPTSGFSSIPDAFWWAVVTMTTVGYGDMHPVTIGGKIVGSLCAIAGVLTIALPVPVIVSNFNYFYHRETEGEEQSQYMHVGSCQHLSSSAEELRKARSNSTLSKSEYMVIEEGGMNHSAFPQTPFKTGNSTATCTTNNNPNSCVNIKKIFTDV

Substance | Activation of tdTomato reporter in Kv1.3 reporter cells, in words (Kv1.3 channel [1]; [3]) | Block / inhibition of Kv1.3 channel, in words (Kv1.3 channel [2]) | also measured
Exendin-4: GLP-1 receptor targeting peptide, negative control lentivirus | no activity | – | –
Vc1.1 | – | – | Activation of tdTomato reporter in Kv1.3 reporter cells, in words (Kv1.3 channel [1]): no activity
ShK | stimulated the Kv1.3 reporter cells to express tdTomato fluorescent protein | comparable inhibition | Effect on Kv1.1, in words (Kv1.1): comparable inhibition; Effect on Kv1.6, in words (Kv1.6): comparable inhibition
CllTx1 (ITINVKCTSPQQCLRPCKDRFGQHAGGKCINGKCKCYP) | – | strongly blocked; also recorded: potently blocked | –
Anuroctoxin | stimulated the Kv1.3 reporter cells to express tdTomato fluorescent protein | – | –
